Laboratory results published in patent US10820591B2, “Substituted sulfonyl amides for controlling animal pests” (Bayer Aktiengesellschaft, priority 2016, dated 2020).

Each compound was assayed on Meloidogyne incognita (assay: Meloidogyne incognita test (sand, lettuce, gall formation)). Conditions: Meloidogyne incognita, 336 h, 4 ppm, after 14 days; read-out: nematicidal efficacy (formation of galls).
Assay type: in vivo
Method: Meloidogyne incognita Test [table] To produce a suitable active compound preparation, 1 part by weight of active compound is mixed with the stated amount of solvent and the concentrate is diluted to the desired concentration with water. Vessels are filled with sand, active compound solution, an egg/larvae suspension of the southern root-knot nematode (Meloidogyne incognita) and lettuce seeds. The lettuce seeds germinate and the plants develop. The galls develop on the roots. After 14 days, the nematicidal efficacy in % is determined by the formation of galls. 100% means that no galls were found; 0% means that the number of galls on the treated plants corresponds to the untreated control.

Compound | pest or weed control at 4 ppm [%]
Cn1nc(C(=O)NS(=O)(=O)c2c(Cl)cccc2Cl)cc1-c1c(F)cccc1F [I-145] | 90
O=C(NS(=O)(=O)c1c(Cl)cccc1Cl)c1cn(Cc2ccc(Cl)cc2)cn1 [I-149] | 90

Same assay, conditions: Meloidogyne incognita, 336 h, 20 ppm, after 14 days; read-out: nematicidal efficacy (formation of galls)

Compound | pest or weed control at 20 ppm [%]
COc1ccc(Cl)c(S(=O)(=O)NC(=O)c2ncn(CC(F)(F)C(F)(F)F)c2Cl)c1 [I-098] | 90
O=C(NS(=O)(=O)c1c(Cl)cccc1Cl)c1ncn(CC(F)(F)C(F)(F)F)c1Cl [I-099] | 70
COc1ccc(Cl)c(S(=O)(=O)NC(=O)c2ncn(C(C)CC(F)(F)F)c2Cl)c1 (stereo not drawn) [I-100] | 90
CC(CC(F)(F)F)n1cnc(C(=O)NS(=O)(=O)c2c(Cl)cccc2Cl)c1Cl (stereo not drawn) [I-101] | 100
CC(CC(F)(F)F)n1cnc(C(=O)NS(=O)(=O)c2ccccc2C(F)(F)F)c1Cl (stereo not drawn) [I-102] | 100
COc1ccc(Cl)c(S(=O)(=O)NC(=O)c2ncn(C3CC3C(F)(F)F)c2Cl)c1 (stereo not drawn) [I-103] | 100
CC(C)Oc1ccc(Cl)c(S(=O)(=O)NC(=O)c2ncn(C3CC3C(F)(F)F)c2Cl)c1 (stereo not drawn) [I-104] | 100
O=C(NS(=O)(=O)c1cc(C(F)(F)F)ccc1Cl)c1ncn(C2CC2C(F)(F)F)c1Cl (stereo not drawn) [I-105] | 90
COc1ccc(Cl)c(S(=O)(=O)NC(=O)c2nc(Br)n(CCC(F)(F)F)c2Br)c1 [I-108] | 100
COc1ccc(Cl)c(S(=O)(=O)NC(=O)c2nc(C)n(-c3cc(Cl)cc(Cl)c3)c2Br)c1 [I-109] | 100
COc1ccc(Cl)c(S(=O)(=O)NC(=O)c2nc(C)n(-c3cc(Cl)cc(Cl)c3)c2I)c1 [I-110] | 100
Cc1nc(C(=O)NS(=O)(=O)c2ccccc2Cl)c(Cl)n1-c1cc(Cl)cc(Cl)c1 [I-111] | 100
Cc1ccccc1S(=O)(=O)NC(=O)c1nc(C)n(-c2cc(Cl)cc(Cl)c2)c1Cl [I-112] | 100
O=C(NS(=O)(=O)c1ccccc1Cl)c1nc(Cl)n(-c2cc(Cl)cc(Cl)c2)c1Cl [I-114] | 100
Cc1ccccc1S(=O)(=O)NC(=O)c1nc(Cl)n(-c2cc(Cl)cc(Cl)c2)c1Cl [I-115] | 100
CC(C)S(=O)(=O)NC(=O)c1cn(C)c(Cc2ccccc2Cl)n1 [I-117] | 90
Cn1cc(C(=O)NS(=O)(=O)c2ccccc2Cl)nc1Cc1cccc(Cl)c1 [I-119] | 90
O=C(NS(=O)(=O)c1cc(Cl)ccc1Cl)c1nc(Cl)n(CCC(F)(F)F)c1Cl [I-123] | 90
O=C(NS(=O)(=O)c1ccccc1Cl)c1nc(Cl)n(CCC(F)(F)F)c1Cl [I-124] | 100
COc1ccc(S(=O)(=O)NC(=O)c2nc(Cl)n(CCC(F)(F)F)c2Cl)cc1 [I-125] | 100
Cn1nc(C(=O)NS(C)(=O)=O)cc1-c1cccc(Cl)n1 [I-126] | 100
Cn1nc(C(=O)NS(C)(=O)=O)cc1-c1ncccc1Cl [I-128] | 70
COc1ccc(Cl)c(S(=O)(=O)NC(=O)c2cc(-c3cccc(Cl)c3)n(C)n2)c1 [I-129] | 90
COc1ccc(Cl)c(S(=O)(=O)NC(=O)c2cc(-c3ccccc3Cl)n(C)n2)c1 [I-130] | 90
Cn1nc(C(=O)NS(=O)(=O)c2cc(Cl)ccc2Cl)cc1-c1ccc(Cl)cc1 [I-131] | 90
Cn1nc(C(=O)NS(=O)(=O)c2cc(Cl)ccc2Cl)cc1-c1cccc(Cl)c1 [I-132] | 90

Compound | pest or weed control at 20 ppm [%]
Cn1nc(C(=O)NS(=O)(=O)c2cc(Cl)ccc2Cl)cc1-c1ccccc1 [I-133] | 70
Cn1nc(C(=O)NS(=O)(=O)c2cc(Cl)ccc2Cl)cc1-c1cc(Cl)cc(Cl)c1 [I-134] | 100
Cn1nc(C(=O)NS(=O)(=O)c2cc(Cl)ccc2Cl)cc1-c1cccc(C(F)(F)F)c1 [I-135] | 90
Cn1nc(C(=O)NS(=O)(=O)c2cc(Cl)ccc2Cl)cc1-c1ncc(C(F)(F)F)cc1Cl [I-136] | 100
COc1ccc(Cl)c(S(=O)(=O)NC(=O)c2cc(-c3cccc(C(F)(F)F)c3)n(C)n2)c1 [I-138] | 100
COc1ccc(Cl)c(S(=O)(=O)NC(=O)c2cc(-c3ncc(C(F)(F)F)cc3Cl)n(C)n2)c1 [I-139] | 100
Cn1nc(C(=O)NS(=O)(=O)c2cc(Cl)ccc2Cl)cc1-c1cc(F)cc(C(F)(F)F)c1 [I-140] | 100
Cn1nc(C(=O)NS(=O)(=O)c2ccccc2Cl)cc1-c1c(F)cccc1F [I-142] | 100
Cn1nc(C(=O)NS(=O)(=O)c2cc(Cl)ccc2Cl)cc1-c1c(F)cccc1F [I-143] | 90
COc1ccc(Cl)c(S(=O)(=O)NC(=O)c2cc(-c3c(F)cccc3F)n(C)n2)c1 [I-144] | 90
Cn1nc(C(=O)NS(=O)(=O)c2c(Cl)cccc2Cl)cc1-c1c(F)cccc1F [I-145] | 70
Cn1nc(C(=O)NS(=O)(=O)c2c(F)cccc2F)cc1-c1c(F)cccc1F [I-146] | 100
O=C(NS(=O)(=O)c1ccc(Cl)cc1Cl)c1cn(Cc2ccc(Cl)cc2)cn1 [I-148] | 100
O=C(NS(=O)(=O)c1ccc(Cl)cc1)c1cn(Cc2ccccc2)cn1 [I-150] | 100
O=C(NS(=O)(=O)c1ccccc1)c1cn(Cc2ccc(Cl)cc2)cn1 [I-151] | 100
O=C(NS(=O)(=O)c1ccccc1)c1cn(Cc2ccccc2)cn1 [I-152] | 100
O=C(NS(=O)(=O)c1cc(Cl)ccc1Cl)c1cn(Cc2ccccc2)cn1 [I-153] | 100
O=C(NS(=O)(=O)c1cc(Cl)ccc1Cl)c1cn(Cc2ccc(Cl)cc2)cn1 [I-154] | 90
O=C(NS(=O)(=O)c1ccccc1)c1cn(Cc2ccccc2Cl)cn1 [I-155] | 100
O=C(NS(=O)(=O)c1c(Cl)cccc1Cl)c1cn(Cc2ccccc2Cl)cn1 [I-157] | 90
O=C(NS(=O)(=O)c1ccccc1Cl)c1cn(Cc2cccc(Cl)c2)cn1 [I-159] | 100
O=C(NS(=O)(=O)c1c(Cl)cccc1Cl)c1cn(Cc2cccc(C(F)(F)F)c2)cn1 [I-161] | 100
O=C(NS(=O)(=O)c1ccccc1Cl)c1cn(Cc2cccc(C(F)(F)F)c2)cn1 [I-162] | 100
Cc1nc(C(=O)NS(=O)(=O)c2ccccc2Cl)cn1Cc1ccccc1Cl [I-163] | 90
O=C(NS(=O)(=O)c1cccc(Cl)c1)c1cn(Cc2ccc(Cl)cc2)cn1 [I-164] | 90
O=C(NS(=O)(=O)c1ccccc1Cl)c1cn(Cc2cc(Cl)cc(Cl)c2)cn1 [I-165] | 100

Compound | pest or weed control at 20 ppm [%]
O=C(NS(=O)(=O)c1c(Cl)cccc1Cl)c1cn(Cc2cc(Cl)cc(Cl)c2)cn1 [I-166] | 100
O=C(NS(=O)(=O)c1ccccc1)c1cn(Cc2cc(Cl)cc(Cl)c2)cn1 [I-167] | 90
Cc1nc(C(=O)NS(=O)(=O)c2ccccc2Cl)cn1Cc1cccc(Cl)c1 [I-168] | 100
Cc1nc(C(=O)NS(=O)(=O)c2c(Cl)cccc2Cl)cn1Cc1cccc(Cl)c1 [I-169] | 90
O=C(NS(=O)(=O)c1ccccc1Cl)c1cn(-c2cccc(Cl)c2)cn1 [I-174] | 100
O=C(NS(=O)(=O)c1c(Cl)cccc1Cl)c1cn(-c2cccc(Cl)c2)cn1 [I-175] | 100
O=C(NS(=O)(=O)c1ccccc1Cl)c1cn(-c2cccc(C(F)(F)F)c2)cn1 [I-176] | 100
O=C(NS(=O)(=O)c1c(Cl)cccc1Cl)c1cn(-c2cccc(C(F)(F)F)c2)cn1 [I-177] | 100
COc1ccc(Cl)c(S(=O)(=O)NC(=O)c2cn(-c3cccc(C(F)(F)F)c3)cn2)c1 [I-178] | 100
COc1ccc(Cl)c(S(=O)(=O)NC(=O)c2cn(-c3cccc(Cl)c3)cn2)c1 [I-179] | 90
O=C(NS(=O)(=O)c1ccccc1)c1cn(-c2cc(Cl)cc(Cl)c2)cn1 [I-180] | 100
O=C(NS(=O)(=O)c1ccccc1Cl)c1cn(-c2cc(Cl)cc(Cl)c2)cn1 [I-181] | 100
O=C(NS(=O)(=O)c1ccc(Cl)cc1)c1cn(-c2cc(Cl)cc(Cl)c2)cn1 [I-182] | 90
O=C(NS(=O)(=O)c1ccccc1Cl)c1cn(-c2ccccc2Cl)cn1 [I-183] | 90
O=C(NS(=O)(=O)c1c(Cl)cccc1Cl)c1cn(-c2ccccc2Cl)cn1 [I-184] | 100
O=C(NS(=O)(=O)c1ccccc1Cl)c1cn(-c2ccc(Cl)cc2)cn1 [I-185] | 100
O=C(NS(=O)(=O)c1c(Cl)cccc1Cl)c1cn(-c2ccc(Cl)cc2)cn1 [I-186] | 90
O=C(NS(=O)(=O)c1c(Cl)cccc1Cl)c1cn(-c2cc(Cl)cc(Cl)c2)cn1 [I-187] | 100
COc1ccc(Cl)c(S(=O)(=O)NC(=O)c2cn(-c3cc(Cl)cc(Cl)c3)cn2)c1 [I-188] | 100
O=C(NS(=O)(=O)c1ccc(Cl)cc1Cl)c1cn(-c2cc(Cl)cc(Cl)c2)cn1 [I-189] | 90
COc1ccc(Cl)c(S(=O)(=O)NC(=O)c2cn(-c3ccc(Cl)cc3)cn2)c1 [I-190] | 100
O=C(NS(=O)(=O)c1ccccc1Cl)c1cn(-c2ccccc2)cn1 [I-191] | 100
O=C(NS(=O)(=O)c1c(Cl)cccc1Cl)c1cn(-c2ccccc2)cn1 [I-192] | 100
O=C(NS(=O)(=O)c1ccccc1)c1cn(-c2ccc(Cl)c(Cl)c2)cn1 [I-193] | 100
